Test results taken from patent US11498900B2, “Salts of an LSD1 inhibitor” (Incyte Corporation, priority 2015, dated 2022).

Key:
Format in all cases: physicochemical
[1] = Dynamic vapor sorption (DVS) analysis; conditions: 25° C.; for Hygroscopicity (DVS adsorption/desorption isotherm): bis(4-methylbenzenesulfonate)
Procedure: Form I was characterized by DVS. The DVS analysis was performed on a TA Instruments Vapor Sorption Analyzer, model VTI-SA^+. The sample was pre-dried on VTI at 50° C. with 0% RH N2 for 1 h. Then the moisture uptake profile was completed in one cycle in 5% RH increments with adsorption from 0% RH to 95% RH followed by desorption in 5% increments from 95% to 5% RH. The equilibration criteria were 0.0050 wt % in 5 minutes with a maximum equilibration time of 180 minutes. All adsorption and desorption were performed at 25° C.
Form HI was characterized by DVS. The DVS analysis was performed on a TA Instruments Vapor Sorption Analyzer, model VTI-SA^+. The moisture uptake profile was completed in one cycle in 5% RH increments with adsorption from 35% RH to 95% RH followed by desorption in 5% increments from 95% to 5% RH. The equilibration criteria were 0.0010 wt % in 5 minutes with a maximum equilibration time of 180 minutes. All adsorption and desorption were performed at 25° C. No pre-drying step was applied for the sample.
Form DH was characterized by DVS. The DVS analysis was performed on a TA Instruments Vapor Sorption Analyzer, model VTI-SA^+. Form DH was generated by pre-drying Form HI on VTI at 40° C. with 0% RH N2 for 3 h. Then the moisture uptake profile was completed in one cycle in 5% RH increments with adsorption from 0% RH to 95% RH followed by desorption in 5% increments from 95% to […]. The equilibration criteria were 0.0010 wt % in 5 minutes with a maximum equilibration time of 180 minutes. All adsorption and desorption were performed at 25° C.

[2] = Solid form conversion on storage or exposure to humidity
Procedure: Form HI of Compound I di-tosylate salt was prepared during the process of drying a wet sample of Compound I di-tosylate salt, Form I, under ambient conditions. […] Form HI can also be generated by purging humidified air (e.g., 60-85% RH) through Form I solid.
Form HIII was prepared by drying Form HI on Vapor Sorption Analyzer (TA Instruments VTI-SA^+) at 40° C. with 0% RH N2 for 3 h and then exposing it to humidity at about 30-50% RH at 25° C. for 1 day.
Form DH was prepared by drying Form HI on Vapor Sorption Analyzer (TA Instruments VTI-SA*) at 25° C. with 0% RH N2 for 2 days.

[3] = Physical stability of Form HI under different humidity conditions
Procedure: Physical stability of Form HI was studied under different humidity conditions. The humidity was controlled at 25° C. using Vapor Sorption Analyzer (TA Instruments, Model VTI-SA*). Approximately 20 mg of Form HI in the sample holder was placed inside the humidity chamber of the instrument and held under constant humidity. A sample in an open glass vial was also set up under ambient conditions. After a certain period of time, the sample was removed and characterized by XRPD, DSC, and TGA. Weight loss by TGA was mostly associated with loss of water. The experimental parameters of XRPD, DSC, and TGA are analogous to those in Example 6 for Form HI.
Form HI was stable for 10 days under humidity conditions of 10-85% RH and was stable for 60 days under ambient conditions. […] The table below provides the data for the physical stability of Form HI at 25° C. (open vial).

[4] = Competitive slurry experiment, relative stability of polymorph forms; conditions: in butanone and butanone/heptane (1:1)
Procedure: In order to evaluate the relative stability relationship of the various Compound I di-tosylate polymorph forms, a competitive slurry experiment with a mixture of Form I, II, III and IIIa through Form XII was conducted in butanone-heptane at 50° C. according to Procedure 1 below and in butanone at 25° C. according to Procedure 2 below. The mixture of thirteen polymorphs was converted to Form I after stirring in butanone/heptane (1:1) at 50° C. for 6-18 hours and after stirring in butanone at 25° C. for 6-18 hours.
Procedure 1 competitive experiment in butanone-heptane at 50° C.:
Procedure 2 competitive experiment in butanone at 25° C.: […]

[5] = Concentration of saturated solution in ethanol
Procedure: In one experiment, Form IIIa was prepared by adding 0.4 mL of saturated solution of Form I in ethanol (60 mg/mL) to 3.0 mL of IPAc. The resulting solid was filtered. Form IIIa was also prepared according to the procedure set forth in Example 13 using EtOH/IPAc as a solvent pair.
In one experiment, Form X was prepared by adding 0.3 mL of saturated solution of Form I in ethanol (60 mg/mL) to 2.5 mL of heptane. The resulting solid was filtered. Form X was also prepared according to the procedure set forth in Example 13 using EtOH/heptane as a solvent pair.

[6] = Thermogravimetric analysis (TGA), decomposition; conditions: ramp 20° C. to 600° C. at 20° C./min, nitrogen
Procedure: Form I was characterized by TGA. The TGA was obtained using a TA Instrument Thermogravimetric Analyzer, Model Q500. The general experimental conditions for TGA were: ramp from 20° C. to 600° C. at 20° C./min; nitrogen purge, gas flow at 40 mL/min followed by balance of the purge flow; sample purge flow at 60 mL/min; platinum sample pan. A weight loss of about 3.5% up to 150° C. was observed and believed to be associated with the loss of moisture and residual solvents.

[7] = high humidity about 60-85% RH, bis(4-methylbenzenesulfonate)
[8] = 0% RH, 2 days, 25° C., open vial
[9] = 5% RH, 7 days, 25° C., open vial
[10] = 10% RH, 10 days, 25° C., open vial
[11] = 30% RH, 5 days, 25° C., open vial
[12] = 75% RH, 10 days, 25° C., open vial
[13] = 85% RH, 10 days, 25° C., open vial
[14] = 90% RH, 4 days, 25° C., open vial

COCC1(CN[C@@H]2C[C@H]2c2ccccc2)CCN(CC2(C(=O)O)CCC2)CC1 [Form DH, 1-{[4-(methoxymethyl)-4-({[(1R,2S)-2-phenylcyclopropyl]amino}methyl)piperidin-1-yl]methyl}cyclobutanecarboxylic acid bis(4-methylbenzenesulfonate)]
Hygroscopicity (DVS adsorption/desorption isotherm) [1]: hygroscopic
Solid form collected after DVS ([1]; after DVS at 85% RH): Form HI
Solid form change on exposure to humidity ([2]; about 30-50% RH): change to Form HIII
Solid form change on exposure to humidity [2, 7]: Form HI

COCC1(CN[C@@H]2C[C@H]2c2ccccc2)CCN(CC2(C(=O)O)CCC2)CC1 [Form HI, 1-{[4-(methoxymethyl)-4-({[(1R,2S)-2-phenylcyclopropyl]amino}methyl)piperidin-1-yl]methyl}cyclobutanecarboxylic acid bis(4-methylbenzenesulfonate)]
Hygroscopicity (DVS adsorption/desorption isotherm) [1]: slightly hygroscopic
% Wt Loss by TGA (25-120° C.) [3, 8]: 2.30%
DSC (° C.) (Peak Temperature) [3, 8]: 97.5 °C
XRPD (solid form) [3, 8]: Form DH
% Wt Loss by TGA (25-120° C.) [3, 9]: 2.93%
DSC (° C.) (Peak Temperature) [3, 9]: 81.2 °C
XRPD (solid form) [3, 9]: Form HI
% Wt Loss by TGA (25-120° C.) [3, 10]: 5.05%
DSC (° C.) (Peak Temperature) [3, 10]: 82.4 °C
XRPD (solid form) [3, 10]: Form HI
Physical stability ([3]; 10-85% RH, 10 days, 25° C.): stable
% Wt Loss by TGA (25-120° C.) [3, 11]: 5.38%
DSC (° C.) (Peak Temperature) [3, 11]: 80.7 °C
XRPD (solid form) [3, 11]: Form HI
% Wt Loss by TGA (25-120° C.) [3, 12]: 5.30%
DSC (° C.) (Peak Temperature) [3, 12]: 79.8 °C
XRPD (solid form) [3, 12]: Form HI
% Wt Loss by TGA (25-120° C.) [3, 13]: 5.35%
DSC (° C.) (Peak Temperature) [3, 13]: 79.9 °C
XRPD (solid form) [3, 13]: Form HI
Physical stability ([3]; 90% RH, 25° C.): change to Form HII
% Wt Loss by TGA (25-120° C.) [3, 14]: 6.04%
DSC (° C.) (Peak Temperature) [3, 14]: 80.0 °C
XRPD (solid form) ([3]; 90% RH, 4 days, 25° C., open vial, cell wraps over r12-r14: Form HI + Form HII (minor)): Form HI +
% Wt Loss by TGA (25-120° C.) ([3]; 90% RH, 10 days, 25° C., open vial): 9.4%
XRPD (solid form) ([3]; 90% RH, 10 days, 25° C., open vial, cell wraps over r15-r16: Form HI + Form HII): Form HI +
% Wt Loss by TGA (25-120° C.) ([3]; Ambient, 60 days, open vial): 4.77%
DSC (° C.) (Peak Temperature) ([3]; Ambient, 60 days, open vial): 79.8 °C
XRPD (solid form) ([3]; Ambient, 60 days, open vial): Form HI
Physical stability ([3]; ambient conditions, 60 days, open vial): stable
Physical stability ([3]; below 10% RH, 25° C.): de-hydrated

COCC1(CN[C@@H]2C[C@H]2c2ccccc2)CCN(CC2(C(=O)O)CCC2)CC1 [Form HIII, 1-{[4-(methoxymethyl)-4-({[(1R,2S)-2-phenylcyclopropyl]amino}methyl)piperidin-1-yl]methyl}cyclobutanecarboxylic acid bis(4-methylbenzenesulfonate)]
Solid form change on exposure to humidity [2, 7]: change to Form HI

COCC1(CN[C@@H]2C[C@H]2c2ccccc2)CCN(CC2(C(=O)O)CCC2)CC1 [Form I, 1-{[4-(methoxymethyl)-4-({[(1R,2S)-2-phenylcyclopropyl]amino}methyl)piperidin-1-yl]methyl}cyclobutanecarboxylic acid bis(4-methylbenzenesulfonate)]
Hygroscopicity (DVS adsorption/desorption isotherm) [1]: hygroscopic
Relative stability of polymorphic forms [4]: most stable polymorphic form
Solid form change ([2]; drying of wet sample under ambient conditions, atmospheric moisture): changed to crystalline Form HI
Solid form change on storage ([2]; storage 25° C./60% RH): converted to Form HI
Solid form change on storage ([2]; storage 40° C./75% RH): converted to Form HI
Concentration of saturated solution [5]: 60000 µg/mL
Temperature after which significant decomposition starts (TGA) [6]: > 200 °C
